{"source": "patent US6645914B1", "about": "“Surfactant-ammonium sulfate adjuvant composition for enhancing efficacy of herbicides” (NDSU-Research Foundation, priority 2002, dated 2003)", "assay_type_in_all_cases": "in vivo", "key": {"[1]": {"tested_on": "Kochia (Kochia scoparia L.)", "assay": "Greenhouse kochia fresh weight reduction from 2,4-D, dicamba, bentazon as influenced by adjuvants", "details": "no adjuvant", "protocol": "Kochia (Kochia scoparia L.) was grown in plastic cones containing a commercial peat-based greenhouse mixture with 5 plants per cone. All growing conditions and herbicide application procedures were similar as explained in Example 2. Herbicides were applied to kochia at the 4 to 6-leaf stage. Herbicide formulation and rates of herbicides and adjuvants are specified in Table 7. Plants were evaluated for herbicide injury and fresh weight reduction 14 days after herbicide application. Data presented are the means of two experiments with four replicates per experiment.\nThe adjuvants, Activator 90. RTM and Composition 1, were added into soft and hard water carriers (volume per volume concentrations shown in TABLE 7) with 2,4-D at 220 g ae/ha, dicamba at 75 g ae/ha, or bentazon at 200 g ai/ha to prepare the final aqueous spray mixture applied at 80 L/ha on 4 to 6-leaf kochia. TABLE 7 includes the results of assessment made 2 weeks after treatment."}, "[2]": {"tested_on": "velvetleaf (Abutilion theophrasti Medicus)", "assay": "Greenhouse velvetleaf fresh weight reduction from glyphosate as influenced by adjuvants", "details": "glyphosate (Roundup Ultra Max.RTM) 150 g ae/ha; hard water (Devils Lake, ND, No. 2 - well water); adjuvant 1%", "protocol": "Wheat (Triticum aestivum L.), velvetleaf (Abutilion theophrasti Medicus), Roundup Ready.RTM soybean (Glycine max (L.) Merr.), and Roundup Ready.RTM corn (Zea mays L.) were grown in plastic cones containing a commercial peat-based greenhouse mixture. Plants were thinned 1 wk after emergence to seven wheat, three velvetlaf, or one corn or soybean per cone and were watered and fertilized as needed for healthy growth. Natural daylight was supplemented for 16 h photoperiod with metal halide lamps with the light intensity of 450 μE/m^2/s. The greenhouse was maintained at 20° C. at night and 25 ±5° C. during the day. Glyphosate with adjuvants was applied to three-leaf wheat and corn, first-pair leaf velvetleaf, and to first-trifoliolate-leaf soybean using a cabinet laboratory sprayer that delivered 80 L/ha through a 8001 flat fan nozzle at 280 kPa generated by compressed air. Distilled water, Fargo tap water (soft), and two well waters from the Devils Lake, ND, area (hard and high sodium content, respectively) were used as spray carriers. Ion concentrations in these waters are described in TABLE 1. Formulation type and rates of glyphosate and adjuvants are specified in each table. In all greenhouse studies, plants were evaluated for herbicide injury and adjuvant efficacy 14 days after herbicide application. Data presented are the means of two experiments with four replicates per experiment. […]"}, "[3]": {"tested_on": "Wheat (Triticum aestivum L.)", "assay": "Greenhouse wheat fresh weight reduction from glyphosate as influenced by adjuvants", "details": "adjuvant 1%", "protocol": "Wheat (Triticum aestivum L.), velvetleaf (Abutilion theophrasti Medicus), Roundup Ready.RTM soybean (Glycine max (L.) Merr.), and Roundup Ready.RTM corn (Zea mays L.) were grown in plastic cones containing a commercial peat-based greenhouse mixture. Plants were thinned 1 wk after emergence to seven wheat, three velvetlaf, or one corn or soybean per cone and were watered and fertilized as needed for healthy growth. Natural daylight was supplemented for 16 h photoperiod with metal halide lamps with the light intensity of 450 μE/m^2/s. The greenhouse was maintained at 20° C. at night and 25 ±5° C. during the day. Glyphosate with adjuvants was applied to three-leaf wheat and corn, first-pair leaf velvetleaf, and to first-trifoliolate-leaf soybean using a cabinet laboratory sprayer that delivered 80 L/ha through a 8001 flat fan nozzle at 280 kPa generated by compressed air. Distilled water, Fargo tap water (soft), and two well waters from the Devils Lake, ND, area (hard and high sodium content, respectively) were used as spray carriers. Ion concentrations in these waters are described in TABLE 1. Formulation type and rates of glyphosate and adjuvants are specified in each table. In all greenhouse studies, plants were evaluated for herbicide injury and adjuvant efficacy 14 days after herbicide application. Data presented are the means of two experiments with four replicates per experiment.\nThe adjuvants, ammonium sulfate, Activator 90. RTM, and mixtures thereof, Surfate.RTM, and Composition 1 were added into water [weight (for solids) or volume (for liquids) per volume concentrations shown in TABLE 2] with glyphosate at 100 g ae/ha to prepare the final aqueous spray mixture applied at 80 L/ha on 2 to 3 leaf wheat. Calcium chloride was added to distilled water to get 0, 125, 250, and 500 mg/L calcium cations. TABLE 2 includes the results of assessment made 2 weeks after treatment.\nThe adjuvants, Activator 90. RTM, MON 0818, Atplus GTM7, Atplus GTM10 and their mixtures with ammonium sulfate, Surfate.RTM, and Composition 1 were added into three water carriers [weight (for solids) or volume (for liquids) per volume concentrations shown in TABLE 3] with glyphosate (100 g ae/ha) to prepare the final aqueous spray mixture applied at 80 L/ha on 2 to 3 leaf wheat. TABLE 3 includes the results of assessment made 2 weeks after treatment.\nThe adjuvants, ammonium sulfate, Activator 90.RTM, and mixtures thereof, Surfate.RTM, and Composition 1 were added into two water carriers (weight [for solids] or volume [for liquids] per volume concentrations shown in TABLE 4) with three glyphosate formulations, all at 125 g ae/ha, to.prepare the final aqueous spray mixture applied at 80 L/ha on 2 to 3 leaf wheat. TABLE 4 includes the results of assessment made 2 weeks after treatment.\nVarious iminodipropionate, betaine, imidazoline, and amine oxide amphoteric surfactants applied with ammonium sulfate and adjuvant formulations containing surfactant and ammonium sulfate, including Composition 1 of present invention, were added into hard water carrier [weight (for solids) or volume (for liquids) per volume concentrations shown in TABLE 5] with glyphosate at 125 g ae/ha to prepare the final aqueous spray mixture applied at 80 L/ha on 2 to 3 leaf wheat. TABLE 5 includes the results of assessment made 2 weeks after treatment."}}, "note": "Structures can show the parent of a compound that is named as a salt.", "data": [{"smiles": "O=C(O)COc1ccc(Cl)cc1Cl", "note": "[2,4-D-dimethylamine salt, (2,4-dichlorophenoxy)acetic acid]", "values": [{"measurement": "percent fresh weigh reduction", "setting": "[1]; 2,4-D-dimethylamine salt 220 g ae/ha, water Devils Lake No. 1 (well)", "result": 10, "unit": "%"}, {"measurement": "percent fresh weigh reduction", "setting": "[1]; 2,4-D-dimethylamine salt 220 g ae/ha, water Fargo, ND (tap)", "result": 20, "unit": "%"}]}, {"smiles": "N.N.O=S(=O)(O)O", "note": "[Ammonium sulfate]", "values": [{"measurement": "Fresh weight reduction %", "setting": "[2]", "result": 54, "unit": "%"}, {"measurement": "% fresh weight reduction", "setting": "[3]; Roundup Custom.RTM 125 g ae/ha, water Devils Lake No. 1 (well)", "result": 23, "unit": "%"}, {"measurement": "% fresh weight reduction", "setting": "[3]; Roundup Custom.RTM 125 g ae/ha, water Fargo (tap)", "result": 68, "unit": "%"}, {"measurement": "% fresh weight reduction", "setting": "[3]; Roundup Ultra Max.RTM 125 g ae/ha, water Devils Lake No. 1 (well)", "result": 43, "unit": "%"}, {"measurement": "% fresh weight reduction", "setting": "[3]; Roundup Ultra Max.RTM 125 g ae/ha, water Fargo (tap)", "result": 54, "unit": "%"}, {"measurement": "% fresh weight reduction", "setting": "[3]; Touchdown.RTM 125 g ae/ha, water Devils Lake No. 1 (well)", "result": 24, "unit": "%"}, {"measurement": "% fresh weight reduction", "setting": "[3]; Touchdown.RTM 125 g ae/ha, water Fargo (tap)", "result": 71, "unit": "%"}, {"measurement": "% fresh weight reduction", "setting": "[3]; glyphosate 100 g ae/ha (Roundup Ultra Max.RTM), Ca2+ 0 mg/L, 2 weeks after treatment", "result": 65, "unit": "%"}, {"measurement": "% fresh weight reduction", "setting": "[3]; glyphosate 100 g ae/ha (Roundup Ultra Max.RTM), Ca2+ 125 mg/L, 2 weeks after treatment", "result": 72, "unit": "%"}, {"measurement": "% fresh weight reduction", "setting": "[3]; glyphosate 100 g ae/ha (Roundup Ultra Max.RTM), Ca2+ 250 mg/L, 2 weeks after treatment", "result": 73, "unit": "%"}, {"measurement": "% fresh weight reduction", "setting": "[3]; glyphosate 100 g ae/ha (Roundup Ultra Max.RTM), Ca2+ 500 mg/L, 2 weeks after treatment", "result": 64, "unit": "%"}]}, {"smiles": "CC(C)N1C(=O)c2ccccc2NS1(=O)=O", "note": "[bentazon-sodium salt, 3-(1-methylethyl)-(1H)-2,1,3-benzothiadiazin-4(3H)-one 2,2-dioxide]", "values": [{"measurement": "percent fresh weigh reduction", "setting": "[1]; bentazon-sodium salt 200 g ai/ha, water Devils Lake No. 1 (well)", "result": 5, "unit": "%"}, {"measurement": "percent fresh weigh reduction", "setting": "[1]; bentazon-sodium salt 200 g ai/ha, water Fargo, ND (tap)", "result": 20, "unit": "%"}]}, {"smiles": "COc1c(Cl)ccc(Cl)c1C(=O)O", "note": "[dicamba-sodium salt, 3,6-dichloro-2-methoxybenzoic acid]", "values": [{"measurement": "percent fresh weigh reduction", "setting": "[1]; dicamba-sodium salt 75 g ae/ha, water Devils Lake No. 1 (well)", "result": 9, "unit": "%"}, {"measurement": "percent fresh weigh reduction", "setting": "[1]; dicamba-sodium salt 75 g ae/ha, water Fargo, ND (tap)", "result": 12, "unit": "%"}]}]}
